According to patent publication EP0585206B1, “Tryptamines for treatment of circadian rhythm disorders” (I.F.L.O. S.a.s. di Giorgio e Aldo Laguzzi, priority 1992, dated 1994):

tested on: N-acetyl-5-methoxytryptamine receptors; test: biological activity by classical tests (agonist/antagonist character); conditions: not given
Method: (§1) All the substances were evaluted for their relative affinity and were tested for biological activity by using classical tests.

Row | SMILES | Activity
1 | COc1ccc2[nH]c(C)c(CCNC(C)=O)c2c1 [Compound 4a] | Agonist
2 | COc1ccc2[nH]c(Br)c(CCNC(C)=O)c2c1 [Compound 4j, N-acetyl-2-bromo-5-methoxy tryptamine] | Agonist
3 | COc1cc2c(CCNC(C)=O)c(Br)[nH]c2cc1Br [Compound 4l] | Agonist
4 | COc1ccc2[nH]c(Br)c(CCNC(=O)C3CC3)c2c1 [Compound 4h] | Agonsit
5 | COc1ccc2[nH]c(C)c(CCNC(=O)C3CC3)c2c1 [Compound 4e] | Agonist
6 | COc1ccc2[nH]c(C3CCCCC3)c(CCNC(C)=O)c2c1 [Compound 4c] | Partial antagonist
7 | COc1ccc2[nH]c(-c3ccccc3)c(CCNC(=O)C3CC3)c2c1 [Compound 4g] | Partial antagonist
8 | COc1ccc2[nH]c(I)c(CCNC(=O)C3CC3)c2c1 [Compound 4i] | Agonist
9 | COc1ccc2[nH]c(-c3ccccc3)c(CCNC(C)=O)c2c1 [Compound 4d] | Antagonist
10 | COc1ccc2[nH]cc(CCNC(C)=O)c2c1 [Melatonin, N-Acetyl-5-methoxytryptamine, reference compound] | Agonist
11 | COc1ccc2[nH]c(I)c(CCNC(C)=O)c2c1 [Compound 4k] | Agonist

target: N-acetyl-5-methoxytryptamine receptors; test: relative affinity for the specific N-acetyl-5-methoxytryptamine receptors; type: binding; conditions: association constant; SE printed in a separate column
Method: as §1

Row | SMILES | Ka ± SE [L/mol]
12 | COc1ccc2[nH]c(-c3ccccc3)c(CCNC(=O)C3CC3)c2c1 [Compound 4g] | 4.1e+09
